Source: patent publication US10512635B2, “Uses of benzimidazole derivative for nocturnal acid breakthrough” (CJ HEALTHCARE CORPORATION, priority 2015, dated 2019)
Where “and” joins values, the source holds several entries; their conditions need not be identical. Identical values can stand only once.

Tested on: gastric pH
Test: Clinical trial: 24 h gastric pH monitoring after single night-time oral dose
Type: in vivo, human (healthy male volunteers)
Settings: for % inhibition of IA / % inhibition of Time pH < 4: post-dose vs baseline; for % inhibition of IA / % inhibition of Time pH < 4 / IA (integrated acidity) / Median pH / Time pH > 4 (%) / Time pH > 6 (%): mean N=12; for IA (integrated acidity) / Median pH / Time pH > 4 (%) / Time pH > 6 (%): post-dose
Experimental: In order to evaluate the nocturnal acid breakthrough inhibiting effect of the compound of Chemical Formula 1 according to the present disclosure, clinical trials were designed by Randomized, Open-label, Single-dose, Balanced incomplete block crossover. A total of 24 trial subjects were enrolled for 12 sequences, with two trial subjects assigned per a sequence. All the trial subjects have completed the planned clinical trial schedule (FIG. 1 and Table 1).
Trial drugs were administered between P.M. 08:30 and P.M 10:30 together with 200 mL of water in a state where water intake was restricted 1 hour before the administration of the trial drugs. Investigator has instructed the trial subjects to take the trial drugs, and has observed the oral cavities of the trial subjects whether all the trial drugs were well taken. The trial subjects were restricted not to lie down for 3 hours after the administration of the trial drugs, but were not restricted when they must lie down or be semi-reclined during a clinical test procedure (for example, electrocardiogram examination). The trial subjects were to take a proper posture if any abnormal reaction occurs at any point.
The trial subjects were allowed to take a small amount of water (150 mL or less) in order to insert a pH sensor easily. The intake of drinking water and food was prohibited for 4 hours after the insertion of a pH sensor, and, particularly, the intake of water was restricted for 4 hours after the administration of the trial drugs (On the day before the administration (−1 D), for 4 hours after estimated drug administration time). After the trial subjects woke up next day, a small amount of water (about 50 mL) was provided to the trial subjects at 2 hour intervals during 12 to 24 hours after the administration of the trial drugs (On the day before the administration (−1 D), during 12 to 24 hours after estimated drug administration time), and the intake of water was not restricted during meal time. Meanwhile, standard meal was provided in the form of liquid meal or semi-liquid, and dinner was finished at least 3 hours before drug administration time (On the day before the administration (−1 D), estimated drug administration time). After dinner, an empty stomach state was maintained until breakfast next morning.
Specifically, for the analysis of […] parameters, the changes of average 15-min median gastric pH over time were monitored. The main […] parameters set forth above were calculated using the data of total 24 persons obtained by the monitoring of gastric pH. The time function of […] parameters was schematically was illustrated to calculate the […] parameters, and these […] parameters were summarized using descriptive statistics (arithmetic mean (mean), standard deviation (SD), coefficient of variation (CV (%)), sample size (N), minimum value (min), maximum value (max), and median value (median)).
Meanwhile, the monitoring of gastric pH was carried out as fellows. • Period 1: for each examination period, 24 h for −1 D (before administration), 24 h for each of 1 D and 7 D (after administration) • Period 2: 24 h for 1 D (after administration)

[1] = dexlansoprazole 60 mg (Comparative Example), 24 hours
[2] = dexlansoprazole 60 mg (Comparative Example), day-time (12-24 hours)
[3] = dexlansoprazole 60 mg (Comparative Example), night-time (0-12 hours)
[4] = Compound I 50 mg (Example 1), 24 hours
[5] = Compound I 50 mg (Example 1), day-time (12-24 hours)
[6] = Compound I 50 mg (Example 1), night-time (0-12 hours)
[7] = Compound I 100 mg (Example 2), 24 hours
[8] = Compound I 100 mg (Example 2), day-time (12-24 hours)
[9] = Compound I 100 mg (Example 2), night-time (0-12 hours)
[10] = Compound I 200 mg (two formulations of Example 2), 24 hours
[11] = Compound I 200 mg (two formulations of Example 2), day-time (12-24 hours)
[12] = Compound I 200 mg (two formulations of Example 2), night-time (0-12 hours)

In the case of `Cc1c(OCC(F)(F)F)ccnc1C[S@@+]([O-])c1nc2ccccc2[nH]1` [dexlansoprazole, reference compound], the “% inhibition of IA” value [1] is reported as 64.66%, the “% inhibition of Time pH < 4” value [1] is reported as 53.96% and the “% inhibition of IA” value [2] is reported as 97.01%. The “% inhibition of Time pH < 4” value [2] was 79.80%, the “% inhibition of IA” value [3] was 44.06% and the “% inhibition of Time pH < 4” value [3] was 29.98%. For the same compound, the “IA (integrated acidity)” value [1] was 719.54 mmol·h/L, the “Median pH” value [1] was 4.98 and the “Time pH > 4 (%)” value [1] was 60.55%. The “Time pH > 6 (%)” value [1] was 25.85%, the “IA (integrated acidity)” value [2] was 22.89 mmol·h/L and the “Median pH” value [2] was 5.56. For the same compound, the “Time pH > 4 (%)” value [2] was 83.05% and 83.06%, the “Time pH > 6 (%)” value [2] was 33.71% and the “IA (integrated acidity)” value [3] was 696.55 mmol·h/L. For the same compound, the “Median pH” value [3] was 2.55, the “Time pH > 4 (%)” value [3] was 37.78% and the “Time pH > 6 (%)” value [3] was 17.76%.
For `Cc1nc2c(OC3CCOc4cc(F)cc(F)c43)cc(C(=O)N(C)C)cc2[nH]1` (centres unmarked) [Compound I, 4-(5,7-difluorochroman-4-yloxy)-N,N,2-trimethyl-1H-benzo[d]imidazole-6-carboxamide], the “% inhibition of IA” value [4] was 78.18%, the “% inhibition of Time pH < 4” value [4] was 51.35% and the “% inhibition of IA” value [5] was 62.64%. For the same compound, the “% inhibition of Time pH < 4” value [5] was 39.65%, the “% inhibition of IA” value [6] was 83.98% and the “% inhibition of Time pH < 4” value [6] was 61.41%. For the same compound, the “IA (integrated acidity)” value [4] was 355.02 mmol·h/L, the “Median pH” value [4] was 4.57 and the “Time pH > 4 (%)” value [4] was 58.55%. The “Time pH > 6 (%)” value [4] was 25.97%, the “IA (integrated acidity)” value [5] was 184.29 mmol·h/L and the “Median pH” value [5] was 4.08. For the same compound, the “Time pH > 4 (%)” value [5] was 52.06%, the “Time pH > 6 (%)” value [5] was 21.56% and the “IA (integrated acidity)” value [6] was 170.73 mmol·h/L. The “Median pH” value [6] was 4.98, the “Time pH > 4 (%)” value [6] was 65.11% and the “Time pH > 6 (%)” value [6] was 30.41%. The “% inhibition of IA” value [7] was 88.78%, the “% inhibition of Time pH < 4” value [7] was 66.22% and the “% inhibition of IA” value [8] was 90.74%. For the same compound, the “% inhibition of Time pH < 4” value [8] was 71.47%, the “% inhibition of IA” value [9] was 88.68% and the “% inhibition of Time pH < 4” value [9] was 62.53%. For the same compound, the “IA (integrated acidity)” value [7] was 229.60 mmol·h/L, the “Median pH” value [7] was 5.10 and the “Time pH > 4 (%)” value [7] was 70.07%. The “Time pH > 6 (%)” value [7] was 31.91%, the “IA (integrated acidity)” value [8] was 67.72 mmol·h/L and the “Median pH” value [8] was 5.10. The “Time pH > 4 (%)” value [8] was 74.57%, the “Time pH > 6 (%)” value [8] was 30.10% and the “IA (integrated acidity)” value [9] was 161.88 mmol·h/L. For the same compound, the “Median pH” value [9] was 5.01, the “Time pH > 4 (%)” value [9] was 65.61% and the “Time pH > 6 (%)” value [9] was 33.85%. For the same compound, the “% inhibition of IA” value [10] was 93.45%, the “% inhibition of Time pH < 4” value [10] was 78.87% and the “% inhibition of IA” value [11] was 97.41%. The “% inhibition of Time pH < 4” value [11] was 82.48%, the “% inhibition of IA” value [12] was 91.17% and the “% inhibition of Time pH < 4” value [12] was 76.00%. The “IA (integrated acidity)” value [10] was 141.62 mmol·h/L, the “Median pH” value [10] was 5.90 and the “Time pH > 4 (%)” value [10] was 81.73%. The “Time pH > 6 (%)” value [10] was 48.44%, the “IA (integrated acidity)” value [11] was 25.51 mmol·h/L and the “Median pH” value [11] was 5.62. For the same compound, the “Time pH > 4 (%)” value [11] was 85.34%, the “Time pH > 6 (%)” value [11] was 43.29% and the “IA (integrated acidity)” value [12] was 116.11 mmol·h/L. For the same compound, the “Median pH” value [12] was 6.00, the “Time pH > 4 (%)” value [12] was 78.15% and the “Time pH > 6 (%)” value [12] was 53.63%. The “Time pH > 4 (%)” value (Compound I 200 mg (two formulations of Example 2), night-time (0-12 hours), listed as compound of Chemical Formula 1) was 73.15% and the “time after administration until average gastric pH reached 4 or higher” value (all dose groups (50 mg, 100 mg, and 200 mg), administered at night-time) was no more than 2 hours.
